Laboratory results taken from patent US20040219098A1, “Methods for the treatment of tumors” (priority 2003, published 2004).

Experiments:
JJ5 Breast Cancer cells [1] = assay: Cytotoxicity (colony-forming) assay against JJ5 breast cancer cells; assay type: cell-based, human; conditions: 14 days
Experimental: JJ5 breast cancer cells were incubated with increasing amounts EGF-^111In-labeled transferrin composition or ^111In-oxine, centrifuged to remove free ligand, assayed and then seeded into 50 mm culture dishes. The number of cells seeded was varied from 3×10^4 to 3×10^6 cells to obtain approximately 400 viable colonies/dish taking into account the plating efficiency and the expected level of cytotoxicity. Control dishes contained JJ5 breast cancer cells which were incubated with normal saline. Growth medium was added and the cells were cultured at 37° C./5% CO^2 for 14 days. The growth medium was removed and the colonies were stained with methylene blue (1% in a 1:1 mixture of ethanol and water) then washed twice. The number of colonies per dish was counted using a manual colony counter (Manostat Corp). The plating efficiency was calculated by dividing the number of colonies observed by the number of cells seeded in each dish. The surviving fraction at increasing amounts of EGF-^111In-labeled transferrin composition or ^111In-oxine was calculated by dividing the plating efficiency for dishes containing treated cells with that observed for control dishes with normal saline.
Using a colony-forming assay, the radiotoxicity of internalization for JJ5 breast cancer cells was evaluated.

JJ5 Breast Cancer cells [2] = assay: Growth inhibition assay against JJ5 breast cancer cells; assay type: cell-based, human; conditions: cultured 4 days
Experimental: JJ5 breast cancer cells (prepared from BCBM JJ5) expressing approximately 10^6 epidermal growth factor receptors/cell were incubated with EGF-^111In-labeled transferrin composition, unlabeled hEGF or ^111In-oxine, centrifuged to remove free ligand, then assayed and seeded (10^6 cells/dish) into 35 mm culture dishes. Growth medium was added and the cells were cultured at 37° C./5% CO^2 for 4 days. The cells were then recovered by trypsinization and counted in a hemocytometer. Control dishes contained cells cultured in growth medium containing ^111In-DTPA or growth medium alone.

JJ5 Breast Cancer cells [3] = assay: Binding of EGF-111In-labeled transferrin composition to breast cancer cells (radioligand binding, kinetics, retention, internalization); set-up: species or system human; conditions: for binding / internalization by cancer cells (in words): JJ5 breast cancer cells
From the text: Breast cancer cells express up to 100-fold higher levels of EGFR than do normal epithelial tissues. EGFR expression in breast cancer bone metastasis biopsies ranged from 1-1300 fmol/mg membrane protein (approximately 400-1,000,000 receptors/cell) and was associated with high relapse rates and poor long term survival. Normal epithelial cells express <10^4 receptors/cell. For the normal breast cell line HBL-100, 8000 EGFR/cell has been reported. The expression of EGFR in breast cancer cell lines has a reported range of 800 EGFR/cell for MCF-7 cells to 10^6 EGFR/cell for MDA-MB-468 cells. […] Utilizing the Auger electron emitter In was used in the initial experiments to illustrate the utility of the invention using EGF-^111In-labeled transferrin compositions. The EGF-^111In-labeled transferrin (0.25-80 ng) was incubated with 1.5×10^6 cells/dish JJ5 Breast Cancer (prepared from BCBM JJ5) cells in 1 mL of 0.1% human serum albumin in 35 mm multiwell culture dishes at 37° C. for 30 minutes. The cells were transferred to a centrifuge tube and centrifuged. The cell pellet was separated from the supernatant and counted in a g-scintillation counter to determine bound (B) and free (F) radioactivity. Non-specific binding was determined by conducting the assay in 100 nM hEGF. The kinetics of binding was determined by incubating 1 ng of EGF-^111In-labeled transferrin composition with 3×10^6 JJ5 Breast Cancer cells at 37° C. and determining the proportion of radioactivity bound to the cells at various times up to 24 hours. Internalized fraction was measured by determining the proportion of radioactivity which could not be displaced from the cell surface by 100 nM hEGF. Cell-associated binding (surface-binding and intracellular accumulation) was expressed as a percentage of medium radioactivity bound per mg of cell study protein.
EGF-^111In-labeled transferrin composition was rapidly bound by the breast cancer cells and retained for at least 24 hours. Over a 24 hour period at 37° C., <8% was lost from the cells in vitro.

[In+3].[O-]c1cccc2cccnc12.[O-]c1cccc2cccnc12.[O-]c1cccc2cccnc12 [^111In oxine, reference compound]
cell killing (JJ5 Breast Cancer cells [1]; <6 pCi/cell): greater than 99%
growth inhibition of the JJ5 cells compared to the medium control (JJ5 Breast Cancer cells [2]; 3.5 pCi/cell): 91%

EGF-^111In-labeled transferrin composition: human epidermal growth factor (EGF) operatively linked via linker-biotin/streptavidin to 111In-radiolabeled human transferrin
time retained by the breast cancer cells (JJ5 Breast Cancer cells [3]; 37° C., in vitro): at least 24 hours
binding / internalization by cancer cells (in words) (JJ5 Breast Cancer cells [3]): rapidly bound
binding / internalization by cancer cells (in words) (JJ5 Breast Cancer cells [3]; listed as EGF-^111In-labeled transferrin compostions): rapidly internalized
affinity constant for binding to JJ5 cells (JJ5 Breast Cancer cells [3]; association (affinity) constant, 37° C., 30 minutes, non-specific binding in 100 nM hEGF): 8e+08 L/mol
111In radioactivity lost from the cells (JJ5 Breast Cancer cells [3]; over a 24 hour period at 37° C., in vitro): < 8%
reduction in cell survival (JJ5 Breast Cancer cells [1]; 8 pCi/cell): 99%
growth inhibition of the JJ5 cells compared to the medium control (JJ5 Breast Cancer cells [2]; 3.4 pCi/cell): 83%
